Data published in patent publication US9943504B2, “Arginine methyltransferase inhibitors and uses thereof” (Epizyme, Inc., priority 2013, dated 2018).

System: mono-methyl arginine in RKO cells
Assay: RKO Methylation Assay (In Cell Western)
Type: cell-based
Conditions: 72 hours, percent activation
Description: RKO adherent cells were purchased from ATCC (American Type Culture Collection), Manassas, Va., USA. DMEM/Glutamax medium, penicillin-streptomycin, heat inactivated fetal bovine serum, 0.05% trypsin and D-PBS were purchased from Life Technologies, Grand Island, N.Y., USA. Odyssey blocking buffer, 800CW goat anti-rabbit IgG (H+L) antibody, and Licor Odyssey infrared scanner were purchased from Licor Biosciences, Lincoln, Nebr., USA. Mono-methyl arginine antibody was purchased from Cell Signaling Technology, Danvers, Mass., USA. Methanol was purchased from VWR, Franklin, Mass., USA. 10% Tween 20 was purchased from KPL, Inc., Gaithersburg, Md., USA. DRAQ5 was purchased from Biostatus Limited, Leicestershire, UK.
RKO adherent cells were maintained in growth medium (DMEM/Glutamax medium supplemented with 10% v/v heat inactivated fetal bovine serum and 100 units/mL penicillin-streptomycin) and cultured at 37° C. under 5% CO2.
Cell Treatment, in Cell Western (ICW) for Detection of Mono-Methyl Arginine and DNA Content.
RKO cells were seeded in assay medium at a concentration of 20,000 cells per mL to a poly-D-lysine coated 384 well culture plate (BD Biosciences 356697) with 50 μL per well. Compound (100 nL) from a 96-well source plate was added directly to 384 well cell plate. Plates were incubated at 37° C., 5% CO2 for 72 hours. After three days of incubation, plates were brought to room temperature outside of the incubator for ten minutes and blotted on paper towels to remove cell media. 50 μL of ice cold 100% methanol was added directly to each well and incubated for 30 min at room temperature. After 30 min, plates were transferred to a Biotek EL406 plate washer and washed 2 times with 100 μL per well of wash buffer (1×PBS). Next 60 μL per well of Odyssey blocking buffer (Odyssey Buffer with 0.1% Tween 20 (v/v)) were added to each plate and incubated 1 hour at room temperature. Blocking buffer was removed and 20 μL per well of primary antibody was added (mono-methyl arginine diluted 1:200 in Odyssey buffer with 0.1% Tween 20 (v/v)) and plates were incubated overnight (16 hours) at 4° C. Plates were washed 5 times with 100 μL per well of wash buffer. Next 20 μL per well of secondary antibody was added (1:200 800CW goat anti-rabbit IgG (H+L) antibody, 1:1000 DRAQ5 (Biostatus limited) in Odyssey buffer with 0.1% Tween 20 (v/v)) and incubated for 1 hour at room temperature. The plates were washed 5 times with 100 μL per well wash buffer then 2 times with 100 μL per well of water. Plates were allowed to dry at room temperature then imaged on the Licor Odyssey machine which measures integrated intensity at 700 nm and 800 nm wavelengths. Both 700 and 800 channels were scanned.
First, the ratio for each well was determined by:
Each plate included fourteen control wells of DMSO only treatment (minimum activation) as well as fourteen control wells for maximum activation treated with 20 μM of a reference compound. The average of the ratio values for each control type was calculated and used to determine the percent activation for each test well in the plate. Reference compound was serially diluted three-fold in DMSO for a total of nine test concentrations, beginning at 20 μM. Percent activation was determined and EC30 curves were generated using triplicate wells per concentration of compound.

Structure (SMILES)	RGG ICW EC30
CC(C)COc1ccc2[nH]nc(CN(C)CCN)c2c1 [Compound 2, N^1-((5-iso-butoxy-1H-indazol-3-yl)methyl)-N^1-methylethane-1,2-diamine]	B (“B” indicates an EC30 of 3.01-12.00 μM)
CNCCN(C)Cc1nn(C)c2ccc(OCC(C)C)cc12 [Compound 3, N^1-((5-iso-butoxy-1-methyl-1H-indazol-3-yl)methyl)-N^1,N^2-dimethylethane-1,2-diamine]	C (“C” indicates an EC30 ≥ 12.01 μM)
CNCCN(C)Cc1n[nH]c2ccc(OC(C)C(C)C)cc12 (centres unmarked) [Compound 4]	A (“A” indicates an EC30 ≤ 3.00 μM)
CNCCN(C)Cc1n[nH]c2ccc(OCCOC)cc12 [Compound 5, N^1-((5-(2-methoxyethoxy)-1H-indazol-3-yl)methyl)-N^1,N^2-dimethylethane-1,2-diamine]	B (“B” indicates an EC30 of 3.01-12.00 μM)
CNCCN(C)Cc1n[nH]c2ccc(OCCCOC)cc12 [Compound 6]	A (“A” indicates an EC30 ≤ 3.00 μM)
CNCCN(C)Cc1n[nH]c2ccc(OCCc3ccccc3)cc12 [Compound 7]	A (“A” indicates an EC30 ≤ 3.00 μM)
CNCCN(C)Cc1n[nH]c2ccc(OCCC(C)C)cc12 [Compound 8]	A (“A” indicates an EC30 ≤ 3.00 μM)
CNCCN(C)Cc1n[nH]c2ccc(OC(C)Cc3ccccc3)cc12 (centres unmarked) [Compound 9]	B (“B” indicates an EC30 of 3.01-12.00 μM)
CNCCN(C)Cc1n[nH]c2ccc(Oc3ccccc3)cc12 [Compound 10, N^1,N^2-dimethyl-N^1-((5-phenoxy-1H-indazol-3-yl)methyl)ethane-1,2-diamine]	B (“B” indicates an EC30 of 3.01-12.00 μM)
CNCCN(C)Cc1n[nH]c2ccc(OC3CCCC3)cc12 [Compound 11]	A (“A” indicates an EC30 ≤ 3.00 μM)
CNCCN(C)Cc1n[nH]c2ccc(OCc3ccccn3)cc12 [Compound 12]	B (“B” indicates an EC30 of 3.01-12.00 μM)
CNCCN(C)Cc1n[nH]c2ccc(OCc3ccc(C#N)cc3)cc12 [Compound 13]	B (“B” indicates an EC30 of 3.01-12.00 μM)
CNCCN(C)Cc1n[nH]c2ccc(OCc3cccc(C#N)c3)cc12 [Compound 14]	B (“B” indicates an EC30 of 3.01-12.00 μM)
CNCCN(C)Cc1n[nH]c2ccc(OCc3cc[nH]n3)cc12 [Compound 17]	C (“C” indicates an EC30 ≥ 12.01 μM)
